In brackets after ≈: the same amount, converted by molar mass. Activity calls are given as the source filed them. No cut-off for these calls is given here.
Assays:
Enterovirus A71 [1] = assay: Antiviral activity against EV71 Xiangyang-Hubei-09 infected in human RD cells assessed as inhibition of virus-induced cytopathic effect by MTT dye based assay; assay type: functional, organism-based
[2] = Cytotoxicity against human RD cells assessed as reduction in cell viability after 3 days by MTT assay; assay type: cell-based
[3] = Selectivity index, ratio of CC50 for human HEP2 cells to EC50 for Coxsackievirus B3 (strain Nancy) infected in human HEP cells; assay type: toxicity, cell-based; details: HEp-2 cells, read-out: Ratio CC50/EC50
[4] = Selectivity index, ratio of CC50 for human RD cells to EC50 for EV71 Xiangyang-Hubei-09 infected in human RD cells; assay type: toxicity, cell-based; details: read-out: Ratio CC50/EC50
[5] = Cytotoxicity against human Hep2 cells assessed as reduction in cell viability after 3 days by MTT assay; assay type: cell-based; details: HEp-2 cells
Coxsackievirus B3 [6] = assay: Antiviral activity against Coxsackievirus B3 (strain Nancy) infected in human HEP2 cells assessed as inhibition of virus-induced cytopathic effect by MTT dye based assay; assay type: functional, organism-based
Coxsackievirus B3 [7] = assay: Antiviral activity against Coxsackievirus B3 (strain Nancy) infected in human HEP2 cells assessed as inhibition of virus-induced cytopathic effect at 16 ug/ml after 48 hrs by MTT dye based assay; assay type: functional, organism-based
Enterovirus A71 [8] = assay: Antiviral activity against EV71 Xiangyang-Hubei-09 infected in human RD cells assessed as alteration in viral cell morphology at 16 ug/ml after 48 hrs; assay type: functional, organism-based
Enterovirus A71 [9] = assay: Antiviral activity against EV71 Xiangyang-Hubei-09 infected in human RD cells assessed as inhibition of virus-induced cytopathic effect at 16 ug/ml treated 1 hr post viral infection measured after 48 hrs by MTT dye based assay relative to control; assay type: functional
[10] = Enterovirus A, Xiangyang-Hubei-09, RD, read-out: EC50
[11] = Enterovirus B, Nancy, HEp-2, read-out: EC50

Q: Which EC50 (Enterovirus A71 [1]; [10]) does the source give for `CCC[C@@H](CCn1cncn1)c1ccc(C)cc1` here?
A: 10.9 µg/mL (≈ 44.8 µM)

Q: What about the CC50 at 72 h [2] of the same compound?
A: 74.1 µg/mL (≈ 304 µM)

Q: And the selectivity ratio [3]?
A: 6.9

Q: And the selectivity ratio [4]?
A: 6.8

Q: And the CC50 at 72 h [5]?
A: 71.3 µg/mL (≈ 293 µM)

Q: What about the EC50 (Coxsackievirus B3 [6]; [11]) of the same compound?
A: 10.3 µg/mL (≈ 42.3 µM)

Q: Which results are given for `Cc1ccc([C@@H](CCn2cncn2)Cc2ccccc2)cc1`?
A: CC50 at 72 h [2]: 109 µg/mL (≈ 373 µM); CC50 at 72 h [5]: 83.3 µg/mL (≈ 286 µM)

Q: For `c1ccc(C[C@H](CCn2cncn2)c2ccccc2)cc1`, which EC50 (Enterovirus A71 [1]; [10]) is on record?
A: 12.7 µg/mL (≈ 45.8 µM)

Q: What about the CC50 at 72 h [2] of the same compound?
A: 55.4 µg/mL (≈ 200 µM)

Q: And the selectivity ratio [3]?
A: 4.1

Q: And the selectivity ratio [4]?
A: 4.4

Q: What about the CC50 at 72 h [5] of the same compound?
A: 60.9 µg/mL (≈ 220 µM)

Q: And the EC50 (Coxsackievirus B3 [6]; [11])?
A: 14.9 µg/mL (≈ 53.7 µM)

Q: What does the source list for `CCC[C@H](CCn1cncn1)c1ccccc1`?
A: CC50 at 72 h [2]: 63.1 µg/mL (≈ 275 µM); CC50 at 72 h [5]: 58.4 µg/mL (≈ 255 µM)

Q: Which inhibition (Enterovirus A71 [1]) does the source give for `CC[C@@H](CCn1cncn1)c1ccc(OC)cc1` here?
A: Dose-dependent effect

Q: What about the EC50 (Enterovirus A71 [1]; [10]) of the same compound?
A: 5.3 µg/mL (≈ 21.6 µM)

Q: And the inhibition (Coxsackievirus B3 [7])?
A: Active

Q: What about the CC50 at 72 h [2] of the same compound?
A: 115 µg/mL (≈ 469 µM)

Q: What about the inhibition (Enterovirus A71 [8]) of the same compound?
A: Active

Q: What about the selectivity ratio [3] of the same compound?
A: 14.5

Q: What about the inhibition at 16 µg/mL (Enterovirus A71 [9]; Enterovirus A, Xiangyang-Hubei-09, RD) of the same compound?
A: 88.1%

Q: What about the selectivity ratio [4] of the same compound?
A: 21.7

Q: What about the CC50 at 72 h [5] of the same compound?
A: 146 µg/mL (≈ 596 µM)

Q: And the inhibition (Coxsackievirus B3 [6])?
A: Dose-dependent effect

Q: And the EC50 (Coxsackievirus B3 [6]; [11])?
A: 10.1 µg/mL (≈ 41.2 µM)

Q: With `CC[C@H](CCn1cncn1)c1ccccc1` as the compound, how does the CC50 at 72 h [2] read?
A: 99.8 µg/mL (≈ 464 µM)

Q: What about the CC50 at 72 h [5] of the same compound?
A: 97.7 µg/mL (≈ 454 µM)

Q: What does the source list for `CCCC[C@H](CCn1cncn1)c1ccc(F)cc1`?
A: CC50 at 72 h [2]: 35.2 µg/mL (≈ 135 µM); CC50 at 72 h [5]: 38.5 µg/mL (≈ 147 µM)

Q: For `CC[C@@H](CCn1cncn1)c1ccc(F)cc1`, which EC50 (Enterovirus A71 [1]; rd) is on record?
A: Not Active

Q: And the CC50 at 72 h [2]?
A: 91.6 µg/mL (≈ 393 µM)

Q: What about the CC50 at 72 h [5] of the same compound?
A: 90.3 µg/mL (≈ 387 µM)

Q: And the EC50 (Coxsackievirus B3 [6])?
A: Not Active

Q: Which CC50 at 72 h [2] does the source give for `CCCC[C@@H](CCn1cncn1)c1ccc(Cl)cc1Cl` here?
A: 1.9 µg/mL (≈ 6.08 µM)

Q: And the CC50 at 72 h [5]?
A: 6.5 µg/mL (≈ 20.8 µM)

Q: For `CCCC[C@H](CCn1cncn1)c1ccc(OC)cc1`, which CC50 at 72 h [2] is on record?
A: 28.3 µg/mL (≈ 104 µM)

Q: What about the CC50 at 72 h [5] of the same compound?
A: 34.5 µg/mL (≈ 126 µM)

Q: With `CCC[C@@H](CCn1cncn1)c1ccc(Cl)cc1` as the compound, how does the CC50 at 72 h [2] read?
A: 40.8 µg/mL (≈ 155 µM)

Q: What about the CC50 at 72 h [5] of the same compound?
A: 36.6 µg/mL (≈ 139 µM)

Q: For `c1ccc(C(CCn2cncn2)C2CCCCC2)cc1` (single isomer, unassigned; 40), which EC50 (Enterovirus A71 [1]; rd) is on record?
A: Not Active

Q: And the CC50 at 72 h [2]?
A: 9.2 µg/mL (≈ 34.2 µM)

Q: And the selectivity ratio [3]?
A: 4.6

Q: And the CC50 at 72 h [5]?
A: 21.8 µg/mL (≈ 80.9 µM)

Q: What about the EC50 (Coxsackievirus B3 [6]; [11]) of the same compound?
A: 4.7 µg/mL (≈ 17.4 µM)

Q: For `CCCC[C@@H](CCn1cncn1)c1ccccc1`, which EC50 (Enterovirus A71 [1]; rd) is on record?
A: Not Active

Q: What about the CC50 at 72 h [2] of the same compound?
A: 47.5 µg/mL (≈ 195 µM)

Q: And the CC50 at 72 h [5]?
A: 40.8 µg/mL (≈ 168 µM)

Q: And the EC50 (Coxsackievirus B3 [6])?
A: Not Active

Q: With `CCCC[C@@H](CCn1cncn1)c1ccc(F)cc1` as the compound, how does the CC50 at 72 h [2] read?
A: 34.1 µg/mL (≈ 130 µM)

Q: And the CC50 at 72 h [5]?
A: 36 µg/mL (≈ 138 µM)

Q: Which CC50 at 72 h [2] does the source give for `Clc1ccc([C@@H](CCn2cncn2)Cc2ccccc2)c(Cl)c1` here?
A: 6.5 µg/mL (≈ 18.8 µM)

Q: What about the CC50 at 72 h [5] of the same compound?
A: 11.1 µg/mL (≈ 32.1 µM)

Q: For `C[C@@H](CCn1cncn1)Cc1ccccc1`, which inhibition (Enterovirus A71 [1]) is on record?
A: Dose-dependent effect

Q: And the EC50 (Enterovirus A71 [1]; [10])?
A: 9.1 µg/mL (≈ 42.3 µM)

Q: And the inhibition (Coxsackievirus B3 [7])?
A: Active

Q: What about the CC50 at 72 h [2] of the same compound?
A: 114 µg/mL (≈ 530 µM)

Q: And the inhibition (Enterovirus A71 [8])?
A: Active

Q: What about the selectivity ratio [3] of the same compound?
A: 12.7

Q: And the inhibition (Enterovirus A71 [9])?
A: Active

Q: What about the selectivity ratio [4] of the same compound?
A: 12.6

Q: What about the CC50 at 72 h [5] of the same compound?
A: 131 µg/mL (≈ 609 µM)

Q: And the inhibition (Coxsackievirus B3 [6])?
A: Dose-dependent effect

Q: What about the EC50 (Coxsackievirus B3 [6]; [11]) of the same compound?
A: 10.3 µg/mL (≈ 47.8 µM)

Q: For `CC[C@@H](CCn1cncn1)c1ccccc1`, which CC50 at 72 h [2] is on record?
A: 91.2 µg/mL (≈ 424 µM)

Q: And the CC50 at 72 h [5]?
A: 89.9 µg/mL (≈ 418 µM)

Q: With `CC[C@H](CCn1cncn1)c1ccc(OC)cc1` as the compound, how does the EC50 (Enterovirus A71 [1]; [10]) read?
A: 15.9 µg/mL (≈ 64.8 µM)

Q: What about the CC50 at 72 h [2] of the same compound?
A: 118 µg/mL (≈ 483 µM)

Q: What about the selectivity ratio [3] of the same compound?
A: 10.2

Q: And the selectivity ratio [4]?
A: 7.4

Q: What about the CC50 at 72 h [5] of the same compound?
A: 153 µg/mL (≈ 625 µM)

Q: And the EC50 (Coxsackievirus B3 [6]; [11])?
A: 15.1 µg/mL (≈ 61.6 µM)

Q: For `Clc1ccc([C@H](CCn2cncn2)Cc2ccccc2)cc1`, which CC50 at 72 h [2] is on record?
A: 21.7 µg/mL (≈ 69.6 µM)

Q: And the CC50 at 72 h [5]?
A: 25.7 µg/mL (≈ 82.4 µM)

Q: What does the source list for `CCC[C@H](CCn1cncn1)c1ccc(OC)cc1`?
A: CC50 at 72 h [2]: 59.3 µg/mL (≈ 229 µM); CC50 at 72 h [5]: 59.6 µg/mL (≈ 230 µM)

Q: Which EC50 (Enterovirus A71 [1]; [10]) does the source give for `CCCC[C@H](CCn1cncn1)c1ccccc1` here?
A: 12.1 µg/mL (≈ 49.7 µM)

Q: What about the CC50 at 72 h [2] of the same compound?
A: 48.3 µg/mL (≈ 198 µM)

Q: What about the selectivity ratio [3] of the same compound?
A: 4.8

Q: What about the selectivity ratio [4] of the same compound?
A: 4

Q: What about the CC50 at 72 h [5] of the same compound?
A: 50.2 µg/mL (≈ 206 µM)

Q: What about the EC50 (Coxsackievirus B3 [6]; [11]) of the same compound?
A: 10.4 µg/mL (≈ 42.7 µM)

Q: What does the source list for `CC[C@@H](CCn1cncn1)c1ccc(Cl)cc1`?
A: EC50 (Enterovirus A71 [1]; [10]): 5.4 µg/mL (≈ 21.6 µM); CC50 at 72 h [2]: 55.3 µg/mL (≈ 221 µM); selectivity ratio [3]: 5.2; selectivity ratio [4]: 10.2; CC50 at 72 h [5]: 55.1 µg/mL (≈ 221 µM); EC50 (Coxsackievirus B3 [6]; [11]): 10.5 µg/mL (≈ 42 µM)

Source: ChEMBL document CHEMBL4130414, “Asymmetric synthesis of novel triazole derivatives and their in vitro antiviral activity and mechanism of action” (Eur J Med Chem, 2017)
